Results on 16 compounds are retold here after PubChem BioAssay (NCI).

Common to all, as to assay: growth of human tumour cells (NCI), 48 h
Assay [1] has as its system EKVX NSCLC.
Assay [2] relates to HCT-116 colon.
Assay [3] concerns LOX IMVI melanoma.
Assay [4] relates to MALME-3M melanoma.
The test system of assay [5] is MCF7 breast.
In assay [6] the test system is OVCAR-4 ovarian.
The subject of assay [7] is RPMI-8226 leukemia.
In assay [8] the test system is SK-OV-3 ovarian.
Assay [9] deals with SR leukemia.
Assay [10] concerns TK-10 renal.

Several values for one entry are separate records, joined by “and”; a condition that tells them apart may be missing. Identical values can stand only once.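 Five compound concentrations were applied to cells in 96-well plates for 48 hours; endpoints were derived by simple linear interpolation of the resulting dose-response curve. The concentration for 50% growth inhibition is given as GI50. TGI: total growth inhibition.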

Turning to `COc1ccc(-c2cnnn2-c2nonc2-n2cccc2)cc1`, the GI50 in assay [1] was 0.547 µM; in assay [2], 0.354 µM; in assay [3] it was 0.594 µM; in assay [4], 0.382 µM; in [5] it was 0.277 µM; in assay [6], 1.78 µM. Besides, the GI50 is 0.353 µM in assay [7], 0.319 µM in [8], 0.0451 µM in assay [9] and 2.12 µM in [10]. The TGI in [1] was above 94.7 µM; in [3], 19 µM; in [4], 27.6 µM; in assay [5], 60.3 µM; in assay [6] it was above 100 µM; in assay [7] it was 5.02 µM. For the same compound, the TGI in assay [8] was 4.28 µM; in [9] it was above 60.3 µM; in [10], above 61 µM.
Turning to `CN(C)CCNCCN`, the TGI in assay [1], in [2], in [3], in assay [4], in assay [5] and in assay [6] was above 100 µM each time. Also, the TGI in assay [7], in assay [8], in [9] and in assay [10] was above 100 µM each time.
As to `O=C1Nc2ccccc2/C1=C1\CCc2cc(O)ccc21`, the GI50 in [1] is 4.17 µM; in [2], 8.79 µM; in [3] it was 6.5 µM; in assay [4] it was 8.11 µM; in [5], 2.74 µM; in [6], 7.02 µM. For the same compound, the GI50 in [7] is 9.71 µM; in assay [8], 8.5 µM; in assay [9] it was 4.25 µM; in [10], 10.7 µM. Besides, the TGI in assay [1], in assay [2], in [3], in assay [4], in [5] and in assay [6] was above 25 µM each time. Besides, the TGI in assay [7], in assay [8], in assay [9] and in [10] was above 25 µM in each case.
In the case of `O=C(Nc1cc(Cl)ccc1O)c1ccc(Nc2ccnc(C(F)(F)F)c2)cc1`, the GI50 in assay [1] is 2.84 µM; in assay [2] it was 2.9 µM; in assay [3] it was 3.09 µM; in [4] it was 1.79 µM; in [5], 2.68 µM; in [6] it was 3.56 µM. The GI50 was 1.25 µM in [7], 2.32 µM in assay [8], 2.52 µM in assay [9] and 2 µM in assay [10]. The TGI in assay [1] was 9.63 µM; in assay [2] it was 60.8 µM; in [3] it was 76.9 µM; in [4], 5.49 µM; in [5], above 100 µM; in [6] it was above 100 µM. Further, the TGI was 3.83 µM in [7], 7.11 µM in assay [8], 9.84 µM in [9] and 7.89 µM in assay [10].
As to `OC(c1cc(-c2ccc(C(F)(F)F)cc2)nc(C(F)(F)F)c1)C1CCCCN1` (centres undefined), the GI50 in assay [1] was 1.96 µM and 4.22 µM; in [2], 1.53 µM; in [5] it was 1.61 µM; in assay [7], 0.418 µM; in assay [9], 0.362 µM; in [10], 1.72 µM and 2.16 µM. Also, the TGI in assay [1] was 4.3 µM and 11.6 µM; in assay [2] it was 2.87 µM and 3.47 µM; in assay [3], 3.13 µM and 3.07 µM; in [4] it was 3.28 µM and 3.38 µM; in assay [5], 3.08 µM and 3.42 µM; in [6], 5.6 µM. Further, the TGI in assay [7] is 2.04 µM and 5.07 µM; in assay [8], 4.75 µM and 5.99 µM; in assay [9] it was 2.17 µM and 4.69 µM; in assay [10] it was 3.23 µM and 4.95 µM.
For `CCNC(=O)/C(=C/c1ccc(OC)cc1)c1cc(OC)c(OC)c(OC)c1`, the TGI in [1], in assay [2], in assay [3], in assay [4], in assay [5] and in assay [6] was above 100 µM throughout. For the same compound, the TGI was above 100 µM in assay [7], above 100 µM in assay [8], above 100 µM in [9] and above 69.7 µM in assay [10].
As for `N[C@H](CCC(=O)N[C@@H](Cc1c[nH]c2ccccc12)C(=O)O)C(=O)O`, the GI50 in [1], in assay [2], in assay [3], in assay [4], in assay [5] and in [6] was above 100 µM each time. The GI50 in [7], in assay [8], in assay [9] and in assay [10] was above 100 µM throughout. Also, the TGI in assay [1], in assay [2], in [3], in [4], in assay [5] and in assay [6] was above 100 µM in each case. In addition, the TGI in assay [7], in [8], in [9] and in assay [10] was above 100 µM each time.
`COc1ccc(/C(C)=C(\c2ccc(OCCN3CCCCCC3)cc2)c2ccc(OC(=O)C3CCCCC3)cc2)cc1`: the GI50 in assay [1] is 1.39 µM; in assay [2], 0.638 µM; in assay [3], 0.319 µM; in assay [4], 0.517 µM; in [5], 0.015 µM; in assay [6], 0.785 µM. In addition, the GI50 in [7] is 0.55 µM; in assay [8], 1.7 µM; in assay [9], 0.291 µM; in [10], 1.84 µM. For the same compound, the TGI in assay [1] came out at 5.48 µM; in [2], 2.47 µM; in assay [3], 0.788 µM; in assay [4] it was 2.14 µM; in assay [5], 2.88 µM; in assay [6], 3.35 µM. The TGI came to 2.23 µM in [7], 3.96 µM in assay [8], 1.07 µM in assay [9] and 4.25 µM in assay [10].
With `COc1ccc(-c2ccc3c(N4CCOC[C@@H]4C)nc(N4CCOC[C@@H]4C)nc3n2)cc1CO`, the GI50 was 0.00504 µM and 0.0229 µM in [1]; 0.00858 µM and 0.0734 µM in assay [2]; 0.00476 µM and 0.028 µM in assay [3]; 0.00289 µM and < 0.01 µM in assay [4]; 0.00432 µM and < 0.0133 µM in [5]; 0.00414 µM and < 0.0142 µM in [6]. Also, the GI50 in assay [7] was 0.00363 µM and 0.0281 µM; in [8], 0.00324 µM and 0.0138 µM; in assay [9], 0.00529 µM and 0.027 µM; in [10], 0.00484 µM and 0.0147 µM. The TGI in [1] was 0.113 µM and 0.564 µM; in assay [2] it was above 100 µM; in [3] it was above 100 µM; in assay [4], 0.0203 µM and 0.0392 µM; in [5], > 3.27 µM and 1.34 µM; in assay [6], 0.0382 µM and 0.12 µM. For the same compound, the TGI in assay [8] is 0.0479 µM and 0.116 µM; in [9] it was above 100 µM; in [10] it was 0.237 µM and 0.212 µM.
For the compound `O=C(/C(=C\c1c(-c2ccccc2)[nH]c2ccccc12)S(=O)(=O)c1ccccc1)c1ccccc1`, the GI50 in [1] was 4.56 µM; in [2] it was 4.89 µM; in assay [3], 74.7 µM; in assay [4], above 100 µM; in assay [5], 5.63 µM; in assay [6] it was 6.58 µM. In addition, the GI50 was 7.61 µM in assay [7], 7.63 µM in assay [8], 9.91 µM in assay [9] and above 100 µM in assay [10]. Moreover, the TGI in assay [1], in [2], in assay [3], in assay [4], in [5] and in assay [6] was above 100 µM in each case. In addition, the TGI in assay [7], in [8], in assay [9] and in assay [10] was above 100 µM throughout.
Take `COc1ccc(-c2nn(-c3cccc(Cl)c3)cc2-c2cc(-c3ccccc3)[nH]c(=O)c2C#N)cc1`: the GI50 in [1] is 1.37 µM; in assay [2] it was 1.71 µM; in assay [3], 8.97 µM; in assay [4], 13.7 µM; in assay [5], 9.02 µM; in assay [6] it was 1.25 µM. Also, the GI50 is 45.6 µM in assay [7], 0.922 µM in assay [8], 7.74 µM in assay [9] and 1.47 µM in assay [10]. In addition, the TGI is above 50 µM in assay [1]; 32.8 µM in assay [2]; above 50 µM in assay [3]; above 50 µM in [4]; above 50 µM in [5]; 5.34 µM in assay [6]. Besides, the TGI in assay [7] is above 50 µM; in assay [8], 2.29 µM; in assay [9] it was 15.8 µM; in [10], 4.6 µM.
Take `NCCNCC1CCNCC1`: the TGI in assay [1], in assay [2], in assay [3], in assay [4], in assay [5] and in [6] was above 100 µM each time. Further, the TGI in assay [7], in [8], in [9] and in assay [10] was above 100 µM in each case.
As to `COc1cc2c(Nc3cc(Cl)c(OC)c(Cl)c3)c(C#N)cnc2cc1OCCCN1CCN(C)CC1`, the GI50 is 1.17 µM in assay [1]; 1.21 µM in assay [2]; 1.06 µM in assay [3]; 1.6 µM in [4]; 2.58 µM in [5]; 1.9 µM in [6]. Further, the GI50 in assay [7] is 1.47 µM; in [8], 0.378 µM; in assay [9], 1.53 µM; in assay [10] it was 0.253 µM. The TGI was 18.9 µM in assay [1]; 3.49 µM in assay [2]; 2.43 µM in [3]; 3.7 µM in [4]; 12.6 µM in assay [5]; 11.3 µM in assay [6]. Also, the TGI was found to be 4.79 µM in assay [7], 16.6 µM in assay [8], 4.41 µM in assay [9] and 2.43 µM in [10].
In the case of `Nc1cc(Br)c(-c2nnc(CCC(=O)c3nc4ccccc4[nH]3)o2)c(Br)c1`, the GI50 is 23.1 µM in [1]; 8.26 µM in [2]; 3.25 µM in assay [3]; 2.06 µM in [4]; 3.06 µM in [5]; 5.49 µM in [6]. The GI50 is 4.21 µM in assay [7], 22.3 µM in assay [8], 4.2 µM in [9] and 36.5 µM in assay [10]. For the same compound, the TGI in assay [1] was above 100 µM; in assay [2], above 100 µM; in [3], 46.4 µM; in assay [4] it was 17.2 µM; in [5], above 100 µM; in assay [6], 78.3 µM. Further, the TGI in [7] was above 100 µM; in assay [8], 80.5 µM; in assay [9], above 100 µM; in [10] it was above 100 µM.
Consider `Nc1ccccc1O.O.O=C(O)C1[O][Sb][O]C1C(=O)O` (centres undefined), for which the GI50 is 18.1 µM in assay [1]; 17.8 µM in [2]; 8.59 µM in [3]; 1.65 µM in assay [4]; 12.6 µM in assay [5]; 16 µM in assay [6]. The GI50 in assay [7] is 1.51 µM; in [8] it was 88.3 µM; in assay [9] it was 2.42 µM; in assay [10] it was 18 µM. Besides, the TGI in assay [1] came out at 38.9 µM; in assay [2] it was 39.6 µM; in assay [3], 29.9 µM; in [4], 4.97 µM; in assay [5], 37.7 µM; in [6], 30.6 µM. For the same compound, the TGI is 6.56 µM in [7], above 100 µM in assay [8], 50.6 µM in assay [9] and 32.4 µM in assay [10].
Take `CC(C)[C@H](O)C(=O)N[C@@H](C)C(=O)N[C@@H]1C(=O)N(C)CCc2ccccc21`: the GI50 in [1], in [2], in assay [3], in [4], in assay [5] and in assay [6] was above 100 µM throughout. Besides, the GI50 in assay [7], in [8], in assay [9] and in [10] was above 100 µM in each case. Also, the TGI in [1], in assay [2], in assay [3], in assay [4], in [5] and in [6] was above 100 µM throughout. Further, the TGI in assay [7], in [8], in [9] and in assay [10] was above 100 µM in each case.
